Laboratory results as given in patent US20090099237A1, “Methods of treating inflammatory diseases” (Roche Palo Alto LLC, priority 2007, published 2009).
Where two headings read alike, the source gives them in different places.

How the values were obtained:
PHKG1 = PHKG1 (Homo sapiens, UniProt Q16816); assay: KinomeScan kinase profiling; format: binding; settings: 10 μM
PKAC-alpha = target: T1, PKAC-alpha (Homo sapiens, UniProt P17612); assay: KinomeScan kinase profiling; format: binding; settings: 10 μM
T1 construct: purchased Ambit Biosciences

[1] = system: IL-6 production in human umbilical vein endothelial cells (HUVECs); assay: Cytokine-induced IL-6 production assay in HUVEC; format: cell-based; settings: IL-1β or LPS stimulation for 6 hours, ELISA, FIG. 4
Procedure: Clonetics® primary human umbilical vein endothelial cells (HUVEC; Lonza Walkersville, Inc., Walkersville, Md.) were cultured according to the manufacturer's instructions in EGM™-2 medium (Lonza) supplemented with EGM-2 SingleQuots (containing fetal bovine serum, hydrocortisone, hFGF, VEGF, hFGF-B, R3-IGF-1, ascorbic acid, hEGF, heparin and gentamicin; Lonza). Where indicated, cells were stimulated with 1 ng/mL IL-1β (R&D Systems, Inc., Minneapolis, Minn.) or 50 ng/mL LPS (Sigma-Aldrich, St. Louis, Mo.) for 6 or 24 hours before cell or supernatant harvest.
Activity of IC261 and Compound A against cytokine-induced inflammation in vitro was determined in human umbilical vein endothelial cells (HUVECs) upon stimulation with either IL-1β or LPS for 6 hours. IL-6 was assessed in supernatants by ELISA according to the manufacturer's instructions (BD Biosciences), and % inhibition calculated based on maximal IL-6 production in each assay.

EPHA3 = target: T2, EPHA3 (Homo sapiens, UniProt P29320); assay: KinomeScan kinase profiling; format: binding; settings: 10 μM
T2 construct: purchased Ambit Biosciences (San Diego, Calif.)
T2 sequence (P29320 21-983): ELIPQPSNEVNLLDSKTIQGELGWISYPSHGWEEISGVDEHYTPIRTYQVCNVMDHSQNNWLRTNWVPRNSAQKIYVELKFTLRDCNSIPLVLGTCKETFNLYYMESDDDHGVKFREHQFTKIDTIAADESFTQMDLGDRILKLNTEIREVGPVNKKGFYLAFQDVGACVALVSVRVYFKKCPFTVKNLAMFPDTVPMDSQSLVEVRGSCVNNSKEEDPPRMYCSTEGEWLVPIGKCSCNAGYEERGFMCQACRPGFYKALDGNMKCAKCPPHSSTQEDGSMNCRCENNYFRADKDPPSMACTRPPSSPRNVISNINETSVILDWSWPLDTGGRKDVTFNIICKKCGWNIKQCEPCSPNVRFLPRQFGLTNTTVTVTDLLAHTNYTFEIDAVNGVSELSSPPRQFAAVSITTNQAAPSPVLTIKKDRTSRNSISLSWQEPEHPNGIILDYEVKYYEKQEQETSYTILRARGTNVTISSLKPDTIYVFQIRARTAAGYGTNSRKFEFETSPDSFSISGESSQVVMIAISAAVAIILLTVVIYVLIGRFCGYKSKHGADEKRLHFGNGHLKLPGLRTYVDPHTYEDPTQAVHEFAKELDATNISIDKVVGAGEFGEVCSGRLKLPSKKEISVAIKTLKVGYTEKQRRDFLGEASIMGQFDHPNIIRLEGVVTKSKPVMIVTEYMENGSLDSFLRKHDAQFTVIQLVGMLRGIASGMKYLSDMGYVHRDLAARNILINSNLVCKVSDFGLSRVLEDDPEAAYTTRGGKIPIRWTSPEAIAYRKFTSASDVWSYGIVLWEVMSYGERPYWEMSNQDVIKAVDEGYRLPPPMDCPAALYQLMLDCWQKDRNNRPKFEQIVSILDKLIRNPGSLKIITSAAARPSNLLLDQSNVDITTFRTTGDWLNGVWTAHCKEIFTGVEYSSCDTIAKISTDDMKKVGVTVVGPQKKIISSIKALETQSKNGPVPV

FGFR2 = target: T3, FGFR2 (Homo sapiens, UniProt P21802); assay: KinomeScan kinase profiling; format: binding; settings: 10 μM
T3 construct: purchased Ambit Biosciences

PCTK1 = PCTK1 (Homo sapiens, UniProt Q00536); assay: KinomeScan kinase profiling; format: binding; settings: 10 μM
Chain of PCTK1 (Q00536 whole entry): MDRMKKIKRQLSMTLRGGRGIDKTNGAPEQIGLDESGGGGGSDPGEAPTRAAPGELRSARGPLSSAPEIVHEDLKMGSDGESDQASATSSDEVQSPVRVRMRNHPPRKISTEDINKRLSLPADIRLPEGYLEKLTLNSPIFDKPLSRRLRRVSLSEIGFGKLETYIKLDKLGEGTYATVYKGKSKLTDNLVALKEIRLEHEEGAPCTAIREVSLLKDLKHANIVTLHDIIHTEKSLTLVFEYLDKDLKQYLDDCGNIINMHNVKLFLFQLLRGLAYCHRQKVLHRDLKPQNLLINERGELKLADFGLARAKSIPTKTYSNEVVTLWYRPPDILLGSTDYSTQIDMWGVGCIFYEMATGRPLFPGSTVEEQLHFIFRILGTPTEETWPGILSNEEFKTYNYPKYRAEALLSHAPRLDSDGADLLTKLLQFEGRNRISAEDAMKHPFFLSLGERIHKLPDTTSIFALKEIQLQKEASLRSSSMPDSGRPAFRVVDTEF

AURKA = target: T4, AURKA (Homo sapiens, UniProt O14965); assay: KinomeScan kinase profiling; format: binding; settings: 10 μM
T4 construct: purchased Ambit Biosciences
T4 sequence (O14965 whole entry): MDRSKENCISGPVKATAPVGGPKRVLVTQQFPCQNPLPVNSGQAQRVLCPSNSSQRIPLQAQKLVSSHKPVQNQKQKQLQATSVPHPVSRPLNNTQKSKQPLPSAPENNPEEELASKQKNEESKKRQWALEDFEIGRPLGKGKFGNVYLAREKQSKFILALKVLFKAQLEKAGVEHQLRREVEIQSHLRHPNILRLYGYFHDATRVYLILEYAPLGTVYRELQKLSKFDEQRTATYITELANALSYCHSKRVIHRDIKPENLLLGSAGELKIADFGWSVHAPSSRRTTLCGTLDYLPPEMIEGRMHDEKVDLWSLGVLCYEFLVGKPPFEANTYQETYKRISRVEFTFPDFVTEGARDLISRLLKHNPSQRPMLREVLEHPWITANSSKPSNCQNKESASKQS

CK1α = target: T5, CK1α (Homo sapiens, UniProt P48729); assay: In vitro kinase assay (33P, peptide substrate); format: biochemical
T5 construct: purchased Invitrogen
T5 sequence (P48729 whole entry): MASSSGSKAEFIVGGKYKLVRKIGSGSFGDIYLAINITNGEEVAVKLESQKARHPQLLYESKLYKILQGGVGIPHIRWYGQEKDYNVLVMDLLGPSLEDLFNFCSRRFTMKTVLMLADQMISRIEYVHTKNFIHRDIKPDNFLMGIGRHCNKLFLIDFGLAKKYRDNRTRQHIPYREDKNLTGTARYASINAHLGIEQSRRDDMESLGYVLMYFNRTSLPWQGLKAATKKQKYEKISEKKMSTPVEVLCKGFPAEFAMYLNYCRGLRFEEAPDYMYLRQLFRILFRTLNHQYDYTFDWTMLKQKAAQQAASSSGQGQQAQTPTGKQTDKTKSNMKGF

LIMK1 = LIMK1 (Homo sapiens, UniProt P53667); assay: KinomeScan kinase profiling; format: binding; settings: 10 μM
Chain of LIMK1 (P53667 whole entry): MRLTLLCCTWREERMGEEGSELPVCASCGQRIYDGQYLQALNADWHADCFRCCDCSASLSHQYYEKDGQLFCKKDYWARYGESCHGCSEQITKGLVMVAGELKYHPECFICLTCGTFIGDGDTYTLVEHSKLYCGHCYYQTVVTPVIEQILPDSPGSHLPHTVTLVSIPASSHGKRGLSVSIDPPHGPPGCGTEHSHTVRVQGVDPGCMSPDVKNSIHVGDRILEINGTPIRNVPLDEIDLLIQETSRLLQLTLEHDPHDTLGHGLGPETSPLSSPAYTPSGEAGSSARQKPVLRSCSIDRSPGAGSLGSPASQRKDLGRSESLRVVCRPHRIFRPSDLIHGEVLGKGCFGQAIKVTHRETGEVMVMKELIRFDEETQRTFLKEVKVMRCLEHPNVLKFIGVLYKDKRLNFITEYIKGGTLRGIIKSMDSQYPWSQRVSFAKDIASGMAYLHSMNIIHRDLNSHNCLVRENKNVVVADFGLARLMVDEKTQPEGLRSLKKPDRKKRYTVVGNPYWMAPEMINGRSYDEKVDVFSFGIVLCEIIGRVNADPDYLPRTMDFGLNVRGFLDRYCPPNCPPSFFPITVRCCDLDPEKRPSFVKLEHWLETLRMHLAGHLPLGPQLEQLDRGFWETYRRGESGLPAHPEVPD

p38-beta = p38-beta (Homo sapiens, UniProt Q15759); assay: KinomeScan kinase profiling; format: binding; settings: 10 μM
Chain of p38-beta (Q15759 whole entry): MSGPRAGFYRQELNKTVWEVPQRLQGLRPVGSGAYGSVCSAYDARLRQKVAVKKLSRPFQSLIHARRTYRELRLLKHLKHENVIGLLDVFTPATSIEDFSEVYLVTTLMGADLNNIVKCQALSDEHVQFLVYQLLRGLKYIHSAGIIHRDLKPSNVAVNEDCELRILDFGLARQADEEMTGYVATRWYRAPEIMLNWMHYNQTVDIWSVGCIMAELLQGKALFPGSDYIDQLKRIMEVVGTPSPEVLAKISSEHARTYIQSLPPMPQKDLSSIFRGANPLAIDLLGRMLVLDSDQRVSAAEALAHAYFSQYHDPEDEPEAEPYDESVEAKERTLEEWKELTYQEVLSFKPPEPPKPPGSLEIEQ

EPHA2 = target: T6, EPHA2 (Homo sapiens, UniProt P29317); assay: KinomeScan kinase profiling; format: binding; settings: 10 μM
T6 construct: purchased Ambit Biosciences (San Diego, Calif.)

FGR = target: T7, FGR (Homo sapiens, UniProt P09769); assay: KinomeScan kinase profiling; format: binding; settings: 10 μM
T7 construct: purchased Ambit Biosciences

CK1δ = target: T8, CK1δ (Homo sapiens, UniProt P48730); assay: In vitro kinase assay (33P, peptide substrate); format: biochemical
T8 construct: purchased Upstate
T8 sequence (P48730 whole entry): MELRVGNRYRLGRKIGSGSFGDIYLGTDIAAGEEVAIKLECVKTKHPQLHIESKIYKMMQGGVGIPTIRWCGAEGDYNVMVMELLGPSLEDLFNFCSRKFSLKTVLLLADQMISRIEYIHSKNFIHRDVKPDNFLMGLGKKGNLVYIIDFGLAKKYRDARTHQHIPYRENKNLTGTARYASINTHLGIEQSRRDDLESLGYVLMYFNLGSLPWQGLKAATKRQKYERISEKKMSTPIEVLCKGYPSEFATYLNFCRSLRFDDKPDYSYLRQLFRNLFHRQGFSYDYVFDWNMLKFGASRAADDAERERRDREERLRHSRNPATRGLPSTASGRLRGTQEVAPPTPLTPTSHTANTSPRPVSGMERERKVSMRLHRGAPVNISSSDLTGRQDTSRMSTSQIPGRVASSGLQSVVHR

CLK2 = target: T9, CLK2 (Homo sapiens, UniProt P49760); assay: KinomeScan kinase profiling; format: binding; settings: 10 μM
T9 construct: purchased Ambit Biosciences (San Diego, Calif.)

JAK2(Kin.Dom2) = target: T10, JAK2(Kin.Dom2) (Homo sapiens, UniProt O60674); assay: KinomeScan kinase profiling; format: binding; settings: 10 μM
T10 construct: JAK2(Kin.Dom2); purchased Ambit Biosciences

RPS6KA3 = target: T11, RPS6KA3 (Homo sapiens, UniProt P51812); assay: KinomeScan kinase profiling; format: binding; settings: 10 μM
T11 construct: purchased Ambit Biosciences
T11 sequence (P51812 whole entry): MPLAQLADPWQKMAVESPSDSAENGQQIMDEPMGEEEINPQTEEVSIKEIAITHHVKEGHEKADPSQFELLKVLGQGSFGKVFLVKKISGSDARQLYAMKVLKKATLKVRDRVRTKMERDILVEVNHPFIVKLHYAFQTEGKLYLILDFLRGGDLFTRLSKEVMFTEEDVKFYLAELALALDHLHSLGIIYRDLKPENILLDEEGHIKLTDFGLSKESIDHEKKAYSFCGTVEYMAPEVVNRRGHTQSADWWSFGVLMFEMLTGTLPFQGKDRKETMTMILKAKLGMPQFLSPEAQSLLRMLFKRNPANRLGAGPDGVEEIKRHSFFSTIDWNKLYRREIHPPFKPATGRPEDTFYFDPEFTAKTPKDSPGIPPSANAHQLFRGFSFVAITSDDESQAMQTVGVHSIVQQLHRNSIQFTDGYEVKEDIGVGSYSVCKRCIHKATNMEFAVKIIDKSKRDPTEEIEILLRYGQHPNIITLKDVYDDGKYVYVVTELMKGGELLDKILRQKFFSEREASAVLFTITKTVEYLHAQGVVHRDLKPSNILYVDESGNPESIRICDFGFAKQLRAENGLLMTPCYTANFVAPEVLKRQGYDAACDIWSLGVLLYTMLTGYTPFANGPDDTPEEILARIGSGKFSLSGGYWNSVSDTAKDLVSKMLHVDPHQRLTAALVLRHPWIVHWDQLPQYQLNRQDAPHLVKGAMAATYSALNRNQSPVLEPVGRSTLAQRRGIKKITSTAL

Chain of PHKG1 (Q16816 whole entry): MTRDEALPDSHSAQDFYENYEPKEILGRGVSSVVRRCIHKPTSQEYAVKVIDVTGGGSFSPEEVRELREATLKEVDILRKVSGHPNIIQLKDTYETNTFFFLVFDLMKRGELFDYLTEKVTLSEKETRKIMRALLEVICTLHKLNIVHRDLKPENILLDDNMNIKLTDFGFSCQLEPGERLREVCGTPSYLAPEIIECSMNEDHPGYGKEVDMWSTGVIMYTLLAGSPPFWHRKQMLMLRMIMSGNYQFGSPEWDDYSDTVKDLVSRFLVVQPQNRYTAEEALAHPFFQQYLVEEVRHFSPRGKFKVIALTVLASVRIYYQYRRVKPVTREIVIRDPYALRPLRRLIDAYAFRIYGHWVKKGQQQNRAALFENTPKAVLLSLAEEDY

| IC50 (CK1α; CK1α, 50 μM ATP, read-out: IC50) | IC50 (CK1δ; CK1δ, 50 μM ATP, read-out: IC50) | Compound | % Binding (PHKG1) | % Binding (PKAC-alpha) | inhibition of IL-1β or LPS-induced IL-6 production [1] | % Binding (EPHA3) | % Binding (FGFR2) | % Binding (PCTK1) | % Binding (AURKA) | % Binding (LIMK1) | % Binding (p38-beta) | % Binding (EPHA2) | % Binding (FGR) | % Binding (CLK2) | % Binding (JAK2(Kin.Dom2)) | % Binding (RPS6KA3) | IC50 (CK1α) | IC50 (CK1δ) |
| --- | --- | --- | --- | --- | --- | --- | --- | --- | --- | --- | --- | --- | --- | --- | --- | --- | --- | --- |
| 1.2 µM | 7.57 µM | NC(=O)c1cc(-c2ccncc2)c[nH]1 [Compound A, 4-Pyridin-4-yl-1H-pyrrole-2-carboxylic acid amide] | <50% | <50% | inhibition | <50% | <50% | <50% | <50% | <50% | <50% | <50% | <50% | <50% | <50% | <50% | – | – |
| – | – | COc1cc(OC)c(C=C2C(O)=Nc3ccccc32)c(OC)c1 [IC261, 3-[(2,4,6-trimethoxyphenyl)methylidenyl]-indolin-2-one] | <50% | <50% | inhibition | <50% | <50% | <50% | <50% | <50% | <50% | <50% | <50% | <50% | <50% | <50% | 6.21 µM | 1.5 µM |
